From PMC4642645, “Oxacillin sensitization of methicillin-resistant Staphylococcus aureus and methicillin-resistant Staphylococcus pseudintermedius by antisense peptide nucleic acids in vitro” (BMC Microbiology, 2015)

How the values were obtained:
MRSP isolates = details: cited from earlier work
Description: In the MRSP strain HH-1, PNAs were effective at much lower concentrations compared to NCTC 13142. This is presumably due to differences in cell wall structures, as passage across the cell wall is considered to be the main limiting factor for PNA efficacy. Another indication of cell wall differences is that scrambled PNAs affected cell viability of HH-1 without affecting transcript levels of mecA or ftsZ (i.e. non-specific toxic effect).

NCTC 13142 [1] = test: Oxacillin sensitization viable count assay (CFU on oxacillin plates); type: cell-based, Staphylococcus aureus (MRSA); details: for Sensitization to oxacillin (CFU reduction), result in words: NCTC 13142, PNA 2.5, 5, 7.5 μM (Z46: 7.5 μM); for Sensitization to oxacillin (CFU reduction), result in words / CFU reduction of NCTC 13142: 6 h, plated on 16 μg/ml oxacillin, n = 3; for CFU reduction of NCTC 13142: ratio to untreated control, mean
Experimental: (§1) The viable count assay is more sensitive than the broth assay and was used to assess the effects of PNAs that performed well in the initial screen described above. In the viable count assay, 5 × 10^5 CFU/ml per well of culture was treated either with 2.5, 5 and 7.5 μM of PNA for NCTC 13142, or 1, 2.5 and 5 μM of PNA for HH-1 in MHB at 35 °C for 6 h. […] Agar plates were incubated at 35 °C for 24 h, and dilutions resulting in 30–300 colonies per plate were used to determine the viable count. Experimental repeats were carried out on separate days, and reductions in CFU of treated cultures were normalized to CFU of the untreated control culture on the day. Statistical analysis of CFU reductions was carried out with the paired Student’s t-Test in Microsoft Excel.

mecA mRNA [2] = test: mecA mRNA level by RT-qPCR; type: cell-based, Staphylococcus pseudintermedius (MRSP) HH-1; details: HH-1, 2.5 μM PNA, no oxacillin, normalized to proC and pyk, average, n = 3
Experimental: (§2) Growth of cultures in a 96 well plate was monitored by reading the optical density at 550 nm every 5 min, after shaking for 5 s in a microplate reader (Spectramax 340PC, […]). Cultures were harvested when the untreated control culture increased in OD550 ≈ 0.1. Cultures with the same PNA treatment but in different wells across the 96 well plate were pooled for total RNA extraction and DNase I treatment (Ribopure™ Bacteria kit, Life Technologies). RNA was checked for gDNA contamination by qPCR using gyrA primers (Additional file 1: Table S1) and SsoFast™ EvaGreen® Supermix (Bio-Rad) before cDNA synthesis using 50 ng RNA and iScript™ Reverse Transcription Supermix (Bio-Rad). Samples of cDNA were diluted 10-fold and 4 μl used in each qPCR reaction. Non-template controls were included for each primer pair in each run, and technical duplicates for each sample were included in each run.
(§3) Primer pairs for qPCR were designed by Primer3 with a Tm of 60 °C and product sizes of 100–200 bp (Additional file 1: Table S1). […] Primer efficiencies were determined using 10-fold serial dilutions of cDNA (10 pg-1 μg). […]
Total RNA and cDNA were prepared as described above. Raw Cq values were analysed in qbase + (Biogazelle, Belgium) with user-defined primer efficiencies (Additional file 1: Table S1) and expression stabilities (M value) of each candidate reference gene fabD, gyrA, proC, pta, pyk, rho, sodA, and tpiA were calculated as the average pairwise variation for each gene with all other tested genes. […] Stepwise exclusion of the gene with the highest M value allowed ranking of the tested genes according to their expression stability, and from this the optimal number of reference genes was calculated. […] Relative mRNA levels were then calculated as induced normalized Cq/uninduced normalized Cq, and analysed with paired Student’s t-Test in Microsoft Excel.

HH-1 [3] = test: Oxacillin sensitization viable count assay (CFU on oxacillin plates); type: cell-based, Staphylococcus pseudintermedius (MRSP); details: for Sensitization to oxacillin (CFU reduction), result in words: HH-1, A73 and scrA 1, 2.5, 5 μM, Z46 0.5, 1, 2.5 μM, 6 h, plated on 16 μg/ml oxacillin, n = 3; for MRSP cells killed by oxacillin: 2.5 μM PNA, 6 h at 35 °C, plated on MH agar with 16 μg/ml oxacillin, relative to untreated control
Experimental: as §1

NCTC 13142 [4] = test: Oxacillin MIC and sensitization broth growth assay (broth microdilution, CLSI); type: cell-based, Staphylococcus aureus (MRSA)
Experimental: (§4) The MRSA strain NCTC 13142 from Public Health England Culture Collections is a UK epidemic strain type EMRSA-15, SCCmec Type IV, and the MRSP strain HH-1 was isolated from a canine skin infection and is ST71, SCCmecII-III [19]. Bacteria were cultured on Columbia base agar (Oxoid, Basingstoke, UK) supplemented with 5 % horse blood (Oxoid) and 6 μg/ml oxacillin (Sigma Aldrich, UK) at 35 °C for 20 h. Overnight broth cultures were prepared from single bacterial colonies inoculated in 3 ml Mueller Hinton broth (MHB, Oxoid) supplemented with 6 μg/ml oxacillin and incubated at 35 °C for 20 h at 180 rpm on a rotary shaker.
(§5) The MIC of oxacillin was determined by broth microdilution according to CLSI guidelines. Briefly, overnight broth cultures of MRSA and MRSP were standardized to OD625 = 0.08–0.09 (equivalent to 10^8 CFU/ml) in MHB and further diluted 100-fold to obtain 10^6 CFU/ml. The bacterial suspension was then inoculated at 50 μl per well to a final concentration of 5 × 10^5 CFU/ml. Two-fold serial dilutions of oxacillin (2–512 μg/ml) were added to bacterial cultures at 50 μl per well to a final volume of 100 μl per well, and 96 well plates were incubated at 35 °C for 24 h. MICs were visually scored.
(§6) Overnight broth cultures were adjusted to 5 × 10^5 CFU/ml per well of a 96 well plate as described above and used either in a broth growth assay or a viable count assay. The broth growth assay was used as an initial screen of PNA efficacy because it was simple to carry out. […] Anti-mecA PNAs were added at either 2.5 or 5 μM. After incubation at 35 °C for 24 h, the MIC of oxacillin in combination with the PNAs in broth cultures were scored visually as recommended by CLSI guidelines.

mecA mRNA [5] = test: mecA mRNA level by RT-qPCR; type: cell-based, Staphylococcus aureus (MRSA) NCTC 13142
Experimental: as §2, with “Non-template controls were included for each primer pair in each run, and technical duplicates for each sample were included in each run.” left out
as §3
(§7) Total RNA and cDNA were prepared as described above. Raw Cq values were analysed in qbase + (Biogazelle, Belgium) with user-defined primer efficiencies (Additional file 1: Table S1) and expression stabilities (M value) of each candidate reference gene fabD, gyrA, proC, pta, pyk, rho, sodA, and tpiA were calculated as the average pairwise variation for each gene with all other tested genes. […]

HH-1 [6] = test: Oxacillin MIC and sensitization broth growth assay (broth microdilution, CLSI); type: cell-based, Staphylococcus pseudintermedius (MRSP)
Experimental: as §4, §5, §6

HH-1 [7] = test: Growth inhibition assay (OD550 growth curves); type: cell-based, Staphylococcus pseudintermedius (MRSP); details: HH-1, MHB with 6 μg/ml oxacillin, PNA 0–7.5 μM, 35 °C, 6 h, OD550, n = 3
Experimental: (§8) Anti-ftsZ PNAs were tested for effects on growth. Overnight MHB cultures were adjusted to 5 × 10^5 CFU/ml per well of a 96 well plate in MHB supplemented with 6 μg/ml oxacillin as described above. Anti-ftsZ PNA was added to final concentrations of 0, 1, 2.5, 5, 7.5 μM and incubated in a microplate reader (Spectramax 340PC, Molecular Devices) at 35 °C for 6 h. The optical density of the cultures was monitored at 550 nm with readings every 5 min after shaking for 5 s.

NCTC 13142 [8] = test: Growth inhibition assay (OD550 growth curves); type: cell-based, Staphylococcus aureus (MRSA); details: NCTC 13142, MHB with 6 μg/ml oxacillin, PNA 0–7.5 μM, 35 °C, 6 h, OD550, n = 3
Experimental: as §8

HH-1 [9] = test: Light microscopy of Gram stained cells (cell morphology); type: cell-based, Staphylococcus pseudintermedius (MRSP); details: HH-1, 2.5 μM PNA, 6 h at 35 °C, 1000 × magnification
Experimental: (§9) Bacterial cultures were treated with anti-ftsZ PNA Z46 in broth as described in the viable count assay. After 6 h at 35 °C, cultures were pelleted, washed once in PBS, and re-suspended in 1/10 of original volume of the culture in PBS. Ten microliter aliquots were heat-fixed, Gram stained, and viewed under a light microscope (Olympus BX60) at 1000 × magnification. Images were captured using the Image-Pro Plus 5.0 (MediaCybernetics), and counting of purple and pink cells were carried out using ImageJ 1.44o (National Institute of Health, USA).

NCTC 13142 [10] = test: as above; type: cell-based, Staphylococcus aureus (MRSA); details: NCTC 13142, 7.5 μM PNA, 6 h at 35 °C, 1000 × magnification
Experimental: as §9

ftsZ mRNA [11] = test: ftsZ mRNA level by RT-qPCR; type: cell-based, Staphylococcus aureus (MRSA) NCTC 13142; details: NCTC 13142, 7.5 μM PNA, no oxacillin, compared to untreated or scrZ-treated cells, n = 3
Experimental: as §2, with “Non-template controls were included for each primer pair in each run, and technical duplicates for each sample were included in each run.” left out
as §3, §7

ftsZ mRNA [12] = test: ftsZ mRNA level by RT-qPCR; type: cell-based, Staphylococcus pseudintermedius (MRSP) HH-1; details: HH-1, 2.5 μM PNA, no oxacillin, compared to untreated or scrZ-treated cells, n = 3
Experimental: as §2, with “Non-template controls were included for each primer pair in each run, and technical duplicates for each sample were included in each run.” left out
as §3, §7

| Substance | Sensitization to oxacillin (CFU reduction), result in words (NCTC 13142 [1]) | Reduction of mecA transcripts (mecA mRNA [2]) | Sensitization to oxacillin (CFU reduction), result in words (HH-1 [3]) | MRSP cells killed by oxacillin (HH-1 [3]) [%] | CFU reduction of NCTC 13142 (NCTC 13142 [1]; 7.5 μM PNA) [%] | Concentration that inhibited growth (HH-1 [7]) [µM] | Concentration that inhibited growth (NCTC 13142 [8]) | Cell morphology after Gram stain (HH-1 [9]) | Cell morphology after Gram stain (NCTC 13142 [10]) | other results |
| --- | --- | --- | --- | --- | --- | --- | --- | --- | --- | --- |
| KFFKFFKFFK [(KFF)3K peptide, cell-penetrating peptide (CPP) used as PNA carrier] |  |  |  |  |  |  |  |  |  | MIC against MRSP isolates (MRSP isolates): 2 to 8 µM |
| KFFKFFKFFK-O-cactataatc-CONH2 [scrA] | did not have an effect | did not have a significant effect | significant sensitization |  |  |  |  |  |  |  |
| KFFKFFKFFK-O-catcaatatc-CONH2 [A73, anti-mecA PNA (−7 to +3) conjugated to cell-penetrating peptide …] | significantly sensitized | 40% | significantly sensitized | 92 |  |  |  |  |  | MRSA cells killed by oxacillin (NCTC 13142 [1]; 7.5 μM PNA, 6 h at 35 °C, plated on MH agar with 16 μg/ml oxacillin, relative to untreated control): 66%; Reduction of mecA transcripts (mecA mRNA [2]; listed as Anti-mecA PNA): reduced; Oxacillin MIC with anti-mecA PNA treatment (NCTC 13142 [4]; NCTC 13142, 5 μM PNA, MHB, 35 °C, 24 h, scored visually, n=2): 128 µg/mL; Sensitization of broth cultures to oxacillin (NCTC 13142 [4]; NCTC 13142, 2.5–5 μM PNA, initial screening): 4–8 fold; mecA mRNA, result in words (mecA mRNA [5]; MRSA, 7.5 μM PNA, p < 0.05): reduced; Reduction of mecA transcripts (mecA mRNA [5]; NCTC 13142, 5 μM PNA, no oxacillin, normalized to pta and gyrA, average, n = 3): 38%; Oxacillin MIC with anti-mecA PNA treatment (HH-1 [6]; HH-1, 2.5 μM PNA, MHB, 35 °C, 24 h, scored visually, n=2): 64 µg/mL; Sensitization of broth cultures to oxacillin (HH-1 [6]; HH-1, 2.5–5 μM PNA, initial screening): 4–8 fold |
| KFFKFFKFFK-eg1-AATTACTATA-NH2 [scrZ, scrambled control PNA for anti-ftsZ PNAs conjugated to the (KFF)3K peptide] |  |  |  |  | 44 | 2.5 | not growth inhibitory | appeared normal | appeared normal |  |
| KFFKFFKFFK-eg1-TAACATTTAA-NH2 [Z46, anti-ftsZ PNA (−4 to +6) conjugated to the (KFF)3K peptide] | significantly sensitized |  | significantly sensitized | 95 | 87 | 2.5 | 7.5 µM | swollen | swollen | ftsZ mRNA levels, result in words (ftsZ mRNA [11]): reduced; ftsZ mRNA levels, result in words (ftsZ mRNA [12]): reduced |
| KFFKFFKFFK-eg1-TTCTAACATT-NH2 [Z19, anti-ftsZ PNA (−1 to +9) conjugated to the (KFF)3K peptide] |  |  |  |  |  |  | ineffective |  |  |  |
